# What was measured:
# LP-1 cells = experiment: Biological Assay C: antiproliferative activity on LP-1 cells (CellTiter-Glo); format: cell-based, human; settings: 72 hr treatment, averaged values
# Method: (§1) Determination of Antiproliferative Activity on LP-1, L-363 and JJN-3 Cells
# (§2) All compounds tested were dissolved in DMSO and further dilutions were made in culture medium. Final DMSO concentration was 0.3% (v/v) in cell proliferation assays. Viability was assessed using CellTiter-Glo cell viability assay kit (Promega). The human LP-1, L-363 and JJN-3 cells (DSMZ) were cultured in RPMI 1640 medium supplemented with 2 mM L-glutamine, and 10% fetal calf serum (PAA). Cells were routinely kept as suspension cells at 37° C. in a humidified 5% CO2 atmosphere. Cells were passaged at a seeding density of 0.2×10^6/ml twice a week. Cells were seeded in black tissue culture treated 96-well plates (Perkin Elmer). Densities used for plating ranged from 2,000 to 6,000 cells per well in a total volume of 75 μl medium. After twenty four hours, drugs and/or solvents were added (25 μl) to a final volume of 100 μl. Following 72 hr of treatment plates were removed from the incubator and allowed to equilibrate to room temperature for approx 10 min. 100 μl CellTiter-Glo reagent was added to each well that was then covered (Perkin Elmer Topseal) and shaken on plate shaker for 10 min. Luminescence was measured on a HTS Topcount (Perkin Elmer). Within an experiment, the results for each treatment were the mean of 2 replicate wells. For initial screening purposes, compounds were tested using a 9 point dilution curve (serial 1:3 dilutions). For each experiment, controls (containing no drug) and a blank incubation (containing cells read at the time of compound addition) were run in parallel. The blank value was subtracted from all control and sample values. For each sample, the mean value for cell growth (in relative light units) was expressed as a percentage of the mean value for cell growth of the control.
# L-363 cells = experiment: Biological Assay C: antiproliferative activity on L-363 cells (CellTiter-Glo); format: cell-based, human; settings: 72 hr treatment, averaged values
# Method: as §1, §2
# [1] = target: T1, Recombinant Human NF-kappaB-Inducing Kinase (NIK/MAP3K14) (Homo sapiens, UniProt Q99558); experiment: Biological Assay A2: inhibition of auto-phosphorylation of recombinant human NIK/MAP3K14 (AlphaScreen); format: biochemical; settings: for IC50: auto-phosphorylation, averaged over all measurements on all batches, read-out: αscreen IC50; for inhibition at 10 µM: read-out: αscreen Max % Inhib @ 10 μM (Average)
# Method: Inhibition of Auto-Phosphorylation of Recombinant Human NF-kappaB-Inducing Kinase (NIK/MAP3K14) Activity (AlphaScreen®)
# NIK/MAP3K14 auto-phosphorylation activity was measured using the AlphaScreen® (αscreen) format (Perkin Elmer). All compounds tested were dissolved in dimethyl sulfoxide (DMSO) and further dilutions were made in assay buffer. Final DMSO concentration was 1% (v/v) in assays. Assay buffer was 50 mM Tris pH 7.5 containing 1 mM EGTA (ethylene glycol tetraacetic acid), 1 mM DTT (dithiothreitol), 0.1 mM Na3VO4, 5 mM MgCl2, 0.01% Tween 20. Assays were carried out in 384 well Alphaplates (Perkin Elmer). Incubations consisted of compound, 25 microM Adenosine-5′-triphosphate (ATP), and 0.2 nM NIK/MAP3K14. Incubations were initiated by addition of GST-tagged NIK/MAP3K14 enzyme, carried out for 1 h at 25° C. and terminated by addition of stop buffer containing anti-phospho-IKK Ser176/180 antibody. Protein A Acceptor and Glutathione-Donor beads were added before reading using an EnVision® Multilabel Plate Reader (Perkin Elmer). Signal obtained in the wells containing blank samples was subtracted from all other wells and IC50's were determined by fitting a sigmoidal curve to % inhibition of control versus Log10 compound concentration.
# JJN-3 cells = experiment: Biological Assay C: antiproliferative activity on JJN-3 cells (CellTiter-Glo); format: cell-based, human; settings: 72 hr treatment, averaged values
# Method: as §1, §2
# [2] = system: P-IKKα levels in L363 cells; experiment: Biological Assay B: effect of compounds on P-IKKα levels in L363 cells; format: cell-based; settings: Homo sapiens, L-363, averaged values, read-out: IKKα Cellular IC50
# Method: Effect of Compounds on P-IKKα Levels in L363 Cells
# All compounds tested were dissolved in DMSO and further dilutions were made in culture medium. Final DMSO concentration was 1% (v/v) in cell assays. The human L363 cells (ATCC) were cultured in RPMI 1640 medium supplemented with GlutaMax and 10% fetal calf serum (PAA). Cells were routinely maintained at densities of 0.2×10^6 cells per ml-1×10^6 cells per ml at 37° C. in a humidified 5% CO2 atmosphere. Cells were passaged twice a week splitting back to obtain the low density. Cells were seeded in 96 well plates (Nunc 167008) at 2×10^6 per ml media in a volume of 75 μl per well plus 25 μl 1 μg/ml recombinant human B-cell activating factor BAFF/B1YS/TNFSF13B. Seeded cells were incubated at 37° C. in a humidified 5% CO2 atmosphere for 24 hr. Drugs and/or solvents were added (20 μl) to a final volume of 120 μl. Following 2 hr treatment plates were removed from the incubator and cell lysis was achieved by the addition of 30 μl 5× lysis buffer followed by shaking on a plate shaker at 4° C. for 10 min. At the end of this incubation lysed cells were centrifuged at 800×g for 20 min at 4° C. and the lysate was assessed for P-IKKα levels by sandwich immuno-assay carried out in anti-rabbit antibody coated Mesoscale plates. Within an experiment, the results for each treatment were the mean of 2 replicate wells. For initial screening purposes, compounds were tested using an 8 point dilution curve (serial 1:3 dilutions). For each experiment, controls (containing MG132 and BAFF but no test drug) and a blank incubation (containing MG132 and BAFF and 10 μM ADS125117, a test concentration known to give full inhibition) were run in parallel. The blank incubation value was subtracted from all control and sample values. To determine the IC50 a sigmoidal curve was fitted to the plot of % inhibition of control P-IKKα levels versus Log10 compound concentration.
# [3] = target: T1, Recombinant Human NF-kappaB-Inducing Kinase (NIK/MAP3K14); experiment: Biological Assay A: inhibition of recombinant human NIK/MAP3K14 activity (MBP phosphorylation, Mesoscale); format: biochemical; settings: for IC50: averaged over all measurements on all batches, read-out: Biochemical (MSD MBP) IC50; for inhibition at 10 µM: read-out: Biochemical (MSD MBP) Max % Inhib @ 10 μM (Average)
# Method: Inhibition of Recombinant Human NF-kappaB-Inducing Kinase (NIK/MAP3K14) Activity
# Assay buffer was 50 mM Tris pH 7.5 containing 1 mM EGTA (ethylene glycol tetraacetic acid), 1 mM DTT (dithiothreitol), 0.1 mM Na3VO4, 5 mM MgCl2, 0.01% Tween 20. Assays were carried out in 384 well Mesoscale high binding plates which had been coated with myelin basic protein (MBP) and blocked with bovine serum albumin to prevent non-specific protein binding. All compounds tested were dissolved in dimethyl sulfoxide (DMSO) and further dilutions were made in assay buffer. Final DMSO concentration was 1% (v/v) in assays. Incubations consisted of compound (1% DMSO in control and blank wells), 25 μM Adenosine-5′-triphosphate (ATP), and 10 nM NIK/MAP3K14 substituting enzyme with buffer in the blank wells. Incubations were carried out for 1 h at 25° C. and were followed by washing and sequential incubation with rabbit anti-phospho-MBP and anti-rabbit Ig Sulfotag antibody before reading bound Sulfotag on a Mesoscale Discovery. Signal obtained in the wells containing blank samples was subtracted from all other wells and IC50's were determined by fitting a sigmoidal curve to % inhibition of control versus Log10 compound concentration.
# T1 sequence (Q99558 whole entry): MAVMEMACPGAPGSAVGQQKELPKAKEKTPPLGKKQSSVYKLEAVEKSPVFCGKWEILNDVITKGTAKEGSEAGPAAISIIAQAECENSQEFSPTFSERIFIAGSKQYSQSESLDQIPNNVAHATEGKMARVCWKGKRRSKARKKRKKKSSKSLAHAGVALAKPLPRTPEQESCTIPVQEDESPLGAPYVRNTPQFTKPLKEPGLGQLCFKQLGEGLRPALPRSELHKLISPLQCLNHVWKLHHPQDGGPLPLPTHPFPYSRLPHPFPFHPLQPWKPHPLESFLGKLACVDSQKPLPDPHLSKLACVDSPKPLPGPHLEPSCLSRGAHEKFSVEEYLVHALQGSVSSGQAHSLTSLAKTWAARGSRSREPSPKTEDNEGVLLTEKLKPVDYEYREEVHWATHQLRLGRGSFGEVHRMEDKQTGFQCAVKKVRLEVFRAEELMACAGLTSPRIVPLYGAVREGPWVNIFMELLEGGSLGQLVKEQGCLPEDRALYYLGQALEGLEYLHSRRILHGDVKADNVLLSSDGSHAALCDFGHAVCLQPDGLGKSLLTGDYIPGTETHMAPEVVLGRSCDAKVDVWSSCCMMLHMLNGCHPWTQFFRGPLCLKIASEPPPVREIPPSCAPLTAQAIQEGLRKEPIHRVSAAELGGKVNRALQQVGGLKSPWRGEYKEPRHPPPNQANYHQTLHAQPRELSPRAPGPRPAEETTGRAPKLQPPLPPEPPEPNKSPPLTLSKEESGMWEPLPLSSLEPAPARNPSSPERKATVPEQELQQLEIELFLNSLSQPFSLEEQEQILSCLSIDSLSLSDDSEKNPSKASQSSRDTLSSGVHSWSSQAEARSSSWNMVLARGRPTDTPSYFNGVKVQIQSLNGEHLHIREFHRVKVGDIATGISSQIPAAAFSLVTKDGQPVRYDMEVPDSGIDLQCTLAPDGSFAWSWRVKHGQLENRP
SMILES,IC50 [1],IC50 [2],IC50 [3],inhibition at 10 µM [1],inhibition at 10 µM [3],EC50 (LP-1 cells),EC50 (L-363 cells),EC50 (JJN-3 cells),"EC50 (LP-1 cells; Homo sapiens, LP-1, 72 h)","EC50 (L-363 cells; Homo sapiens, L-363, 72 h)","EC50 (JJN-3 cells; Homo sapiens, JJN-3, 72 h)"
"CC(O)(C#Cc1cc2c(-c3nc(N)ncc3F)cn(C3COC3)c2cn1)C1CC1 (single isomer, unassigned) [Compound 122]",26 nM,36 nM,–,–,–,310 nM,69 nM,100 nM,–,–,–
CC(C)(O)C#Cc1cc2c(-c3ccnc(N)n3)c[nH]c2cn1 [Compound 1],4 nM,93 nM,6.9 nM,–,–,–,–,–,3200 nM,180 nM,200 nM
CC(C)(O)C#Cc1cc2c(-c3ccnc(N)n3)cn(CC(C)(C)O)c2cn1 [Compound 3],34 nM,75 nM,15 nM,–,–,–,–,–,11000 nM,230 nM,500 nM
CNc1nccc(-c2c[nH]c3cnc(C#CC(C)(C)O)cc23)n1 [Compound 4],21 nM,130 nM,46 nM,–,–,–,–,–,5300 nM,400 nM,420 nM
CC(C)n1cc(-c2ccnc(N)n2)c2cc(C#CCO)ncc21 [Compound 13],150 nM,–,30 nM,–,–,–,–,–,710 nM,36 nM,150 nM
CC(C)(O)Cn1cc(-c2ccnc(N)n2)c2cc(C#CC(C)(O)C3(C)COC3)ncc21 (centres unmarked) [Compound 47],9200 nM,–,2900 nM,–,–,–,–,–,> 10000 nM,> 10000 nM,> 10000 nM
CC(C)(O)Cn1cc(-c2ccnc(N)n2)c2cc(C#CCO)ncc21 [Compound 62],680 nM,–,250 nM,–,–,–,–,–,18000 nM,880 nM,970 nM
CN(C)C(=O)C(C)(O)C#Cc1cc2c(-c3ccnc(N)n3)cn(CC(C)(C)O)c2cn1 (centres unmarked) [Compound 63],780 nM,–,600 nM,–,–,–,–,–,–,–,–
CC(C)(O)C#Cc1cc2c(-c3nc(N)ncc3C(F)(F)F)cn(CC3CCOCC3)c2cn1 [Compound 71],61 nM,–,26 nM,–,–,–,–,–,2600 nM,520 nM,550 nM
CC(O)(C#Cc1cc2c(-c3nc(N)ncc3F)cn(C3COC3)c2c(C2CC2)n1)C1CC1 (centres unmarked) [Compound 98],220 nM,110 nM,–,–,–,–,–,–,210 nM,42 nM,78 nM
CN1CC(n2cc(-c3nc(N)ncc3F)c3cc(C#CC(C)(O)C4CC4)nc(C4CC4)c32)C1 (centres unmarked) [Compound 102],900 nM,32 nM,–,–,–,–,–,–,65 nM,21 nM,35 nM
COCCn1cc(-c2ccnc(N)n2)c2cc(C#CC3(O)CCN(C)CC3)ncc21 [Compound 123],–,–,–,27%,23%,–,–,–,–,–,–
COCCn1cc(-c2ccnc(N)n2)c2cc(C#CC(C)(O)C3CNC3)ncc21 (centres unmarked) [Compound 124],–,–,–,33%,40%,–,–,–,–,–,–
COCCn1cc(-c2ccnc(N)n2)c2cc(C#CC3(O)CNC3)ncc21 [Compound 125],–,–,–,24%,18%,–,–,–,–,–,–

# Second part, led by results:
IC50 [1],IC50 [2],IC50 [3],inhibition at 10 µM [1],inhibition at 10 µM [3],SMILES,EC50 (LP-1 cells),EC50 (L-363 cells),EC50 (JJN-3 cells),"EC50 (LP-1 cells; Homo sapiens, LP-1, 72 h)","EC50 (L-363 cells; Homo sapiens, L-363, 72 h)","EC50 (JJN-3 cells; Homo sapiens, JJN-3, 72 h)"
17 nM,20 nM,–,–,–,"COCCCn1cc(-c2nc(N)ncc2F)c2cc(C#CC(C)(O)C3CC3)ncc21 (single isomer, unassigned) [Compound 120]",200 nM,74 nM,95 nM,–,–,–
48 nM,82 nM,9.7 nM,–,–,COCCn1cc(-c2ccnc(N)n2)c2cc(C#CC(C)(C)O)ncc21 [Compound 2],–,–,–,1900 nM,210 nM,220 nM
8 nM,30 nM,1.6 nM,–,–,Cn1cc(-c2ccnc(N)n2)c2cc(C#CC(C)(C)O)ncc21 [Compound 5],–,–,–,320 nM,94 nM,160 nM
1600 nM,–,930 nM,–,–,COCCC(C)(O)C#Cc1cc2c(-c3ccnc(N)n3)cn(CC(C)(C)O)c2cn1 (centres unmarked) [Compound 39],–,–,–,–,–,–
38 nM,–,6.3 nM,–,–,CC(C)(O)C#Cc1cc2c(-c3nc(N)ncc3C(F)(F)F)cn(CC(C)(C)O)c2cn1 [Compound 72],–,–,–,7200 nM,190 nM,320 nM
71 nM,–,56 nM,–,–,CC(C)(O)C#Cc1cc2c(-c3nc(N)ncc3F)cn(CC3CCOCC3)c2cn1 [Compound 73],–,–,–,1600 nM,140 nM,190 nM
43 nM,–,17 nM,–,–,CC(C)(O)C#Cc1cc2c(-c3nc(N)ncc3F)cn(C3COC3)c2cn1 [Compound 74],–,–,–,1100 nM,45 nM,76 nM
16 nM,12 nM,–,–,–,COCCCn1cc(-c2nc(N)ncc2F)c2cc(C#CC(C)(C)O)ncc21 [Compound 76],–,–,–,300 nM,110 nM,140 nM
21 nM,70 nM,–,–,–,CC(O)(C#Cc1cc2c(-c3nc(N)ncc3F)cn(C3COC3)c2cn1)C1CC1 (centres unmarked) [Compound 97],–,–,–,1200 nM,100 nM,170 nM
13 nM,49 nM,–,–,–,CN(C)C(=O)n1cc(-c2nc(N)ncc2F)c2cc(C#CC(C)(O)C3CC3)ncc21 (centres unmarked) [Compound 103],–,–,–,680 nM,48 nM,91 nM

# From patent US9643964B2, “3-(2-aminopyrimidin-4-yl)-5-(3-hydroxypropynyl)-1H-pyrrolo[2,3-C]pyridine derivatives as NIK inhibitors for the treatment of cancer” (Janssen Pharmaceutica NV, priority 2013, dated 2017)
